Data as given in patent publication US20250041179A1, “ANTIMICROBIAL COMBINATIONS” (SYMRISE AG, priority 2021, published 2025).

What was measured:
C. albicans = experiment: Preservative efficacy test (Ph. Eur., adjusted inoculum) in shampoo formulation; assay type: cell-based, Candida albicans; details: substance alone 0.5% w/w
Experimental: (§1) Preservative efficacy tests were performed according to the European Pharmacopoeia with adjusted inoculation numbers (10^6-10^7 cells of suitable bacteria or fungi). Material was tested in predesigned standardised cosmetic formulations either as oil-in-water anionic emulsion (Table 2), shampoo (Table 3), or wet wipe solution (Table 4). The antimicrobial actives were dissolved or mixed with the standardised cosmetic formulations, leading to the indicated test concentrations (in w/w %, cf. Tables 5 to 12 below). To determine synergistic indices, raw values for bacterial of fungal colony counts were used.
(§2) [formula] • where • SI is the synergism index according to Kull • CA is the cell count for substance A (also “count A”) • CB is the cell count for substance B (also “count B”) • Cmixture is the cell count for the mixture of substance A and B (also “count mix”) • PA is the proportion of the substance A in the mixture in relation to the concentration tested alone • PB is the proportion of the substance B in the mixture in relation to the concentration tested alone

P. aeruginosa = experiment: as above; assay type: cell-based, Pseudomonas aeruginosa; details: substance alone 0.5% w/w
Experimental: as §1, §2

E. coli [1] = experiment: as above; assay type: cell-based, Escherichia coli; details: substance alone 0.5% w/w
Experimental: as §1
(§3) To calculate the synergism between the indicated antimicrobial actives (cf. preservative efficacy tests below), the Kull equation (Kull et al., Applied Microbiology 1961, 9 (6), pp. 538-541, DOI: 10.1128/am.9.6.538-541.1961.; Steinberg D. C. (2000): Measuring Synergy. In Cosmetics & Toiletries, 115) was used:
as §2

A. brasiliensis = experiment: as above; assay type: cell-based, Aspergillus brasiliensis
Experimental: as §1, §2

E. coli [2] = experiment: Preservative efficacy test (Ph. Eur., adjusted inoculum) in O/W anionic emulsion; assay type: cell-based, Escherichia coli; details: substance alone 0.5% w/w
Experimental: (§4) Material was tested in predesigned standardised cosmetic formulations either as oil-in-water anionic emulsion (Table 2), shampoo (Table 3), or wet wipe solution (Table 4). The antimicrobial actives were dissolved or mixed with the standardised cosmetic formulations, leading to the indicated test concentrations (in w/w %, cf. […] To determine synergistic indices, raw values for bacterial of fungal colony counts were used. [table] […] Steinberg D. C. (2000): Measuring Synergy. In Cosmetics & Toiletries, 115) was used: […]

S. aureus [3] = experiment: as above; assay type: cell-based, Staphylococcus aureus; details: substance alone 0.5% w/w
Experimental: as §4

S. aureus [4] = experiment: Preservative efficacy test (Ph. Eur., adjusted inoculum) in shampoo formulation; assay type: cell-based, Staphylococcus aureus
Experimental: as §1, §3, §2

O=C(O)c1ccccc1O [Salicylic Acid, salicylic acid, reference compound]
Absolute cell counts 2 days (C. albicans): 7.30E+01
Relative cell counts 2 days (C. albicans): 0.0000
Absolute cell counts 7 days (C. albicans): 1
Relative cell counts 7 days (C. albicans): 0.0000
Absolute cell counts 14 days (C. albicans): 1
Relative cell counts 14 days (C. albicans): 0.0000
Absolute cell counts 28 days (C. albicans): 1
Relative cell counts 28 days (C. albicans): 0.0000
Absolute cell counts 2 days (P. aeruginosa): 1
Relative cell counts 2 days (P. aeruginosa): 0.0000
Absolute cell counts 7 days (P. aeruginosa): 1
Relative cell counts 7 days (P. aeruginosa): 0.0000
Absolute cell counts 14 days (P. aeruginosa): 1
Relative cell counts 14 days (P. aeruginosa): 0.0000
Absolute cell counts 28 days (P. aeruginosa): 1
Relative cell counts 28 days (P. aeruginosa): 0.0000
Absolute cell counts 2 days (E. coli [1]): 9.50E+03
Relative cell counts 2 days (E. coli [1]): 0.0021
Absolute cell counts 7 days (E. coli [1]): 7.20E+03
Relative cell counts 7 days (E. coli [1]): 0.0016
Absolute cell counts 14 days (E. coli [1]): 1
Relative cell counts 14 days (E. coli [1]): 0.0000
Absolute cell counts 28 days (E. coli [1]): 1
Relative cell counts 28 days (E. coli [1]): 0.0000

CC(C)(C)C(=O)C(Oc1ccc(Cl)cc1)n1ccnc1 (stereo not shown) [Climbazole, climbazole, reference compound]
Absolute cell counts 2 days (A. brasiliensis; substance alone 0.5% w/w): 1.50E+05
Relative cell counts 2 days (A. brasiliensis; substance alone 0.5% w/w): 0.0366
Absolute cell counts 7 days (A. brasiliensis; substance alone 0.5% w/w): 6.20E+04
Relative cell counts 7 days (A. brasiliensis; substance alone 0.5% w/w): 0.0151
Absolute cell counts 14 days (A. brasiliensis; substance alone 0.5% w/w): 5.90E+04
Relative cell counts 14 days (A. brasiliensis; substance alone 0.5% w/w): 0.0144
Absolute cell counts 28 days (A. brasiliensis; substance alone 0.5% w/w): 4.60E+04
Relative cell counts 28 days (A. brasiliensis; substance alone 0.5% w/w): 0.0112

CCCCCCCC(=O)OCCCO [3-Hydroxypropyl caprylate, 3-hydroxypropyl caprylate]
Absolute cell counts 2 days (C. albicans): 2.10E+03
Relative cell counts 2 days (C. albicans): 0.0010
Absolute cell counts 7 days (C. albicans): 1
Relative cell counts 7 days (C. albicans): 0.0000
Absolute cell counts 14 days (C. albicans): 1
Relative cell counts 14 days (C. albicans): 0.0000
Absolute cell counts 28 days (C. albicans): 1
Relative cell counts 28 days (C. albicans): 0.0000
Absolute cell counts 2 days (E. coli [2]): 3.30E+06
Relative cell counts 2 days (E. coli [2]): 0.9706
Absolute cell counts 7 days (E. coli [2]): 2.60E+04
Relative cell counts 7 days (E. coli [2]): 0.0076
Absolute cell counts 14 days (E. coli [2]): 1
Relative cell counts 14 days (E. coli [2]): 0.0000
Absolute cell counts 28 days (E. coli [2]): 1
Relative cell counts 28 days (E. coli [2]): 0.0000
Absolute cell counts 2 days (P. aeruginosa): 9.30E+04
Relative cell counts 2 days (P. aeruginosa): 0.0211
Absolute cell counts 7 days (P. aeruginosa): 9.50E+02
Relative cell counts 7 days (P. aeruginosa): 0.0002
Absolute cell counts 14 days (P. aeruginosa): 1
Relative cell counts 14 days (P. aeruginosa): 0.0000
Absolute cell counts 28 days (P. aeruginosa): 1
Relative cell counts 28 days (P. aeruginosa): 0.0000
Absolute cell counts 2 days (S. aureus [3]): 2.10E+05
Relative cell counts 2 days (S. aureus [3]): 0.0382
Absolute cell counts 7 days (S. aureus [3]): 1.80E+02
Relative cell counts 7 days (S. aureus [3]): 0.0000
Absolute cell counts 14 days (S. aureus [3]): 1
Relative cell counts 14 days (S. aureus [3]): 0.0000
Absolute cell counts 28 days (S. aureus [3]): 1
Relative cell counts 28 days (S. aureus [3]): 0.0000
Absolute cell counts 2 days (S. aureus [4]; substance alone 0.5% w/w): 1
Relative cell counts 2 days (S. aureus [4]; substance alone 0.5% w/w): 0.0000
Absolute cell counts 7 days (S. aureus [4]; substance alone 0.5% w/w): 1
Relative cell counts 7 days (S. aureus [4]; substance alone 0.5% w/w): 0.0000
Absolute cell counts 14 days (S. aureus [4]; substance alone 0.5% w/w): 1
Relative cell counts 14 days (S. aureus [4]; substance alone 0.5% w/w): 0.0000
Absolute cell counts 28 days (S. aureus [4]; substance alone 0.5% w/w): 1
Relative cell counts 28 days (S. aureus [4]; substance alone 0.5% w/w): 0.0000
Absolute cell counts 2 days (E. coli [1]): 1.80E+06
Relative cell counts 2 days (E. coli [1]): 0.5806
Absolute cell counts 7 days (E. coli [1]): 2.00E+06
Relative cell counts 7 days (E. coli [1]): 0.6452
Absolute cell counts 14 days (E. coli [1]): 1.70E+06
Relative cell counts 14 days (E. coli [1]): 0.5484
Absolute cell counts 28 days (E. coli [1]): 1.10E+06
Relative cell counts 28 days (E. coli [1]): 0.3548
Absolute cell counts 2 days (A. brasiliensis; substance alone 0.5% w/w): 3.00E+06
Relative cell counts 2 days (A. brasiliensis; substance alone 0.5% w/w): 0.9091
Absolute cell counts 7 days (A. brasiliensis; substance alone 0.5% w/w): 3.80E+06
Relative cell counts 7 days (A. brasiliensis; substance alone 0.5% w/w): 1.1515
Absolute cell counts 14 days (A. brasiliensis; substance alone 0.5% w/w): 4.50E+06
Relative cell counts 14 days (A. brasiliensis; substance alone 0.5% w/w): 1.3636
Absolute cell counts 28 days (A. brasiliensis; substance alone 0.5% w/w): 8.10E+05
Relative cell counts 28 days (A. brasiliensis; substance alone 0.5% w/w): 0.2455

C/C=C/C=C/C(=O)[O-].[K+] [Potassium Sorbate, potassium sorbate]
Absolute cell counts 2 days (A. brasiliensis; substance alone 0.5% w/w): 1.40E+04
Relative cell counts 2 days (A. brasiliensis; substance alone 0.5% w/w): 0.0034
Absolute cell counts 7 days (A. brasiliensis; substance alone 0.5% w/w): 1
Relative cell counts 7 days (A. brasiliensis; substance alone 0.5% w/w): 0.0000
Absolute cell counts 14 days (A. brasiliensis; substance alone 0.5% w/w): 1
Relative cell counts 14 days (A. brasiliensis; substance alone 0.5% w/w): 0.0000
Absolute cell counts 28 days (A. brasiliensis; substance alone 0.5% w/w): 1
Relative cell counts 28 days (A. brasiliensis; substance alone 0.5% w/w): 0.0000

O=C([O-])c1ccccc1.[Na+] [Sodium Benzoate, sodium benzoate]
Absolute cell counts 2 days (P. aeruginosa): 9.60E+03
Relative cell counts 2 days (P. aeruginosa): 0.0026
Absolute cell counts 7 days (P. aeruginosa): 1
Relative cell counts 7 days (P. aeruginosa): 0.0000
Absolute cell counts 14 days (P. aeruginosa): 1
Relative cell counts 14 days (P. aeruginosa): 0.0000
Absolute cell counts 28 days (P. aeruginosa): 1
Relative cell counts 28 days (P. aeruginosa): 0.0000
Absolute cell counts 2 days (S. aureus [4]; substance alone 0.2% w/w): 2.20E+04
Relative cell counts 2 days (S. aureus [4]; substance alone 0.2% w/w): 0.0037
Absolute cell counts 7 days (S. aureus [4]; substance alone 0.2% w/w): 1
Relative cell counts 7 days (S. aureus [4]; substance alone 0.2% w/w): 0.0000
Absolute cell counts 14 days (S. aureus [4]; substance alone 0.2% w/w): 1
Relative cell counts 14 days (S. aureus [4]; substance alone 0.2% w/w): 0.0000
Absolute cell counts 28 days (S. aureus [4]; substance alone 0.2% w/w): 1
Relative cell counts 28 days (S. aureus [4]; substance alone 0.2% w/w): 0.0000
Absolute cell counts 2 days (E. coli [1]): 8.70E+05
Relative cell counts 2 days (E. coli [1]): 0.1933
Absolute cell counts 7 days (E. coli [1]): 9.50E+05
Relative cell counts 7 days (E. coli [1]): 0.2111
Absolute cell counts 14 days (E. coli [1]): 4.20E+05
Relative cell counts 14 days (E. coli [1]): 0.0933
Absolute cell counts 28 days (E. coli [1]): 2.40E+04
Relative cell counts 28 days (E. coli [1]): 0.0053
Absolute cell counts 2 days (A. brasiliensis; substance alone 0.2% w/w): 8.00E+04
Relative cell counts 2 days (A. brasiliensis; substance alone 0.2% w/w): 0.0800
Absolute cell counts 7 days (A. brasiliensis; substance alone 0.2% w/w): 1.10E+04
Relative cell counts 7 days (A. brasiliensis; substance alone 0.2% w/w): 0.0110
Absolute cell counts 14 days (A. brasiliensis; substance alone 0.2% w/w): 3.30E+02
Relative cell counts 14 days (A. brasiliensis; substance alone 0.2% w/w): 0.0003
Absolute cell counts 28 days (A. brasiliensis; substance alone 0.2% w/w): 3.20E+02
Relative cell counts 28 days (A. brasiliensis; substance alone 0.2% w/w): 0.0003

Cc1cc(CC(C)CC(C)(C)C)n(O)c(=O)c1.NCCO (stereo not shown) [Piroctone olamine, piroctone olamine, reference compound]
Absolute cell counts 2 days (C. albicans): 1
Relative cell counts 2 days (C. albicans): 0.0000
Absolute cell counts 7 days (C. albicans): 1
Relative cell counts 7 days (C. albicans): 0.0000
Absolute cell counts 14 days (C. albicans): 1
Relative cell counts 14 days (C. albicans): 0.0000
Absolute cell counts 28 days (C. albicans): 1
Relative cell counts 28 days (C. albicans): 0.0000
Absolute cell counts 2 days (E. coli [2]): 1
Relative cell counts 2 days (E. coli [2]): 0.0000
Absolute cell counts 7 days (E. coli [2]): 1
Relative cell counts 7 days (E. coli [2]): 0.0000
Absolute cell counts 14 days (E. coli [2]): 1
Relative cell counts 14 days (E. coli [2]): 0.0000
Absolute cell counts 28 days (E. coli [2]): 1
Relative cell counts 28 days (E. coli [2]): 0.0000
Absolute cell counts 2 days (P. aeruginosa): 1
Relative cell counts 2 days (P. aeruginosa): 0.0000
Absolute cell counts 7 days (P. aeruginosa): 1
Relative cell counts 7 days (P. aeruginosa): 0.0000
Absolute cell counts 14 days (P. aeruginosa): 1
Relative cell counts 14 days (P. aeruginosa): 0.0000
Absolute cell counts 28 days (P. aeruginosa): 1
Relative cell counts 28 days (P. aeruginosa): 0.0000
Absolute cell counts 2 days (S. aureus [3]): 2.50E+06
Relative cell counts 2 days (S. aureus [3]): 0.7813
Absolute cell counts 7 days (S. aureus [3]): 3.80E+04
Relative cell counts 7 days (S. aureus [3]): 0.0119
Absolute cell counts 14 days (S. aureus [3]): 1
Relative cell counts 14 days (S. aureus [3]): 0.0000
Absolute cell counts 28 days (S. aureus [3]): 1
Relative cell counts 28 days (S. aureus [3]): 0.0000
